According to ChEMBL document CHEMBL1201862, “PubChem BioAssay data set” (2004):
Active and inactive are the calls of the source.

Experiments:
Format in all cases: functional
[1] = molecular target: Apoptotic protease-activating factor 1 (Homo sapiens, UniProt O14727)
[2] = molecular target: T1, Corticotropin-releasing factor receptor 2/Corticotropin-releasing factor-binding protein (Homo sapiens, UniProt P24387+Q13324); assay: Dose Response confirmation of uHTS hits for small molecule antagonists of the CRF-binding protein and CRF-R2 receptor complex.; settings: read-out: IC50_Mean
T1 sequence (Q13324 whole entry): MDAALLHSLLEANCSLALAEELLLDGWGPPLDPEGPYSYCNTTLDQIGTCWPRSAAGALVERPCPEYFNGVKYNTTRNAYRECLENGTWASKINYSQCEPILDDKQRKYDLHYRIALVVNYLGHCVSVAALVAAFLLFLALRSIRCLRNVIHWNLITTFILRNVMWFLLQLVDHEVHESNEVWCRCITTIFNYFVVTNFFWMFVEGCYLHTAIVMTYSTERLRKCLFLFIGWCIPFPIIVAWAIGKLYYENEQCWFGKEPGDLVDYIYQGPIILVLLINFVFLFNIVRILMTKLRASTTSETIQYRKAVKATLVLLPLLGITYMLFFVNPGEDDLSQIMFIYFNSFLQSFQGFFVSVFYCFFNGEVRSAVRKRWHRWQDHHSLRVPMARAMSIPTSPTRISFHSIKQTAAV
T1 sequence (P24387 whole entry): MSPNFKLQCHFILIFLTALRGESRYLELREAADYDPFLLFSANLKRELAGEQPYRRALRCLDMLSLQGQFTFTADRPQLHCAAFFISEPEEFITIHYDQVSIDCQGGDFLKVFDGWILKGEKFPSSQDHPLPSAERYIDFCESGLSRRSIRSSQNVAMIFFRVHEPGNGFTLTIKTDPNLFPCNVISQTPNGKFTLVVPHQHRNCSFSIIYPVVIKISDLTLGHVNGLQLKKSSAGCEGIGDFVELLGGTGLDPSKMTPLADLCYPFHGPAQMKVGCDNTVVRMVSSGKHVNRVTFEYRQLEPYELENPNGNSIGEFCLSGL

[3] = molecular target: T1, Corticotropin-releasing factor receptor 2/Corticotropin-releasing factor-binding protein; assay: activators of CRF receptor 2 with binding protein – uHTS hits, confirmation (AID 602473); settings: read-out: EC50_Mean
Leucine aminopeptidase = molecular target: T2, Leucine aminopeptidase (Plasmodium falciparum 3D7, UniProt Q8IL11); assay: P. falciparum M17LAP inhibitors, primary screen, biochemical, fluorogenic H-Leu-NHMec substrate, 1536-well (AID 1619)
T2 sequence (Q8IL11 whole entry): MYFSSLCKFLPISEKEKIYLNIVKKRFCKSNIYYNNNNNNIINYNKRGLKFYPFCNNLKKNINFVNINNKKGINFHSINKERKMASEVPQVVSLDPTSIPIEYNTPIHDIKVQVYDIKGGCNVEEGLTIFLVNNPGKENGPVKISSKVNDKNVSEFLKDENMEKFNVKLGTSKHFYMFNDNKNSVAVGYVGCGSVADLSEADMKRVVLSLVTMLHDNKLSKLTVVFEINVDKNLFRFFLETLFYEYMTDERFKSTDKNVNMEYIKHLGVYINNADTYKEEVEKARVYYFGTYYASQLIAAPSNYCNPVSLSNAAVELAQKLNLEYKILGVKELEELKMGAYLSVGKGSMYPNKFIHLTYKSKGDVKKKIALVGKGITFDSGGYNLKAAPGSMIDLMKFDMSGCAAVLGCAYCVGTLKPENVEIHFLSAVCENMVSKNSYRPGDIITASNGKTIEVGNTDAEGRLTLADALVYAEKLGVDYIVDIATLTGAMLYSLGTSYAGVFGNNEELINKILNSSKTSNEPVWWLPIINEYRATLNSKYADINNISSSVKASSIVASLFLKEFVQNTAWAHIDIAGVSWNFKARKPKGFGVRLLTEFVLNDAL

[4] = molecular target: Ras and Rab interactor 1/Tyrosine-protein kinase ABL1 (Homo sapiens, UniProt P00519+Q13671);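 further: biochemical TR-FRET dose-response test measuring inhibition of binding between Rin1 and Abl proteins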
Sequence of Ras and Rab interactor 1/Tyrosine-protein kinase ABL1 (P00519 whole entry): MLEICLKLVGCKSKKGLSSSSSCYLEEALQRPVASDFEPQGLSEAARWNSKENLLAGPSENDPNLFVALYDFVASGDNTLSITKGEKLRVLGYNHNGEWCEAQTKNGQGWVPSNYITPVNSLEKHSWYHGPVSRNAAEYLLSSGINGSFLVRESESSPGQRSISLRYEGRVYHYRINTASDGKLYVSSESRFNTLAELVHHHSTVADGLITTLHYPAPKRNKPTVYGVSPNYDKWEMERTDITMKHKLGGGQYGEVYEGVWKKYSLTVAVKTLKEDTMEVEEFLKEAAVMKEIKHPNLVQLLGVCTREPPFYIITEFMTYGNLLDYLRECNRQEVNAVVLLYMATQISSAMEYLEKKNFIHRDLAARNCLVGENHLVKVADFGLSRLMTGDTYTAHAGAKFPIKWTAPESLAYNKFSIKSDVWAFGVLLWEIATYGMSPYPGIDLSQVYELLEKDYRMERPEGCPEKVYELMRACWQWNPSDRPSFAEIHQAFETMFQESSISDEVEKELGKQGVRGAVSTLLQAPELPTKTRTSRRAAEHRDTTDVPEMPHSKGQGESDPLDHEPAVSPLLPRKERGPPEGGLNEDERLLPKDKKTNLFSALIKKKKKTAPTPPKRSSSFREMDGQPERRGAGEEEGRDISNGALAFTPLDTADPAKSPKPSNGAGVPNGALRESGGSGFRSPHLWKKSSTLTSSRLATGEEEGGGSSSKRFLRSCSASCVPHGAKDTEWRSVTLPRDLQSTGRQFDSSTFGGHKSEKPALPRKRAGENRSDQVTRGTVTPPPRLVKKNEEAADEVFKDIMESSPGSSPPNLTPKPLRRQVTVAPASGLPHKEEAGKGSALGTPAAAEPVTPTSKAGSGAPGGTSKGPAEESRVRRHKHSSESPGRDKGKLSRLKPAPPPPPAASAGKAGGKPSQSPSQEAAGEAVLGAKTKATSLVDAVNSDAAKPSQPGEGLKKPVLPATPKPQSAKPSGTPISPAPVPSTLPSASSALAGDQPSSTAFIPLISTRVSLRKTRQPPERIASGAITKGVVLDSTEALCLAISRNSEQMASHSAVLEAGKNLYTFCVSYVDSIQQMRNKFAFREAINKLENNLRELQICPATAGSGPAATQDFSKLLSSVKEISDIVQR
Sequence of Ras and Rab interactor 1/Tyrosine-protein kinase ABL1 (Q13671 whole entry): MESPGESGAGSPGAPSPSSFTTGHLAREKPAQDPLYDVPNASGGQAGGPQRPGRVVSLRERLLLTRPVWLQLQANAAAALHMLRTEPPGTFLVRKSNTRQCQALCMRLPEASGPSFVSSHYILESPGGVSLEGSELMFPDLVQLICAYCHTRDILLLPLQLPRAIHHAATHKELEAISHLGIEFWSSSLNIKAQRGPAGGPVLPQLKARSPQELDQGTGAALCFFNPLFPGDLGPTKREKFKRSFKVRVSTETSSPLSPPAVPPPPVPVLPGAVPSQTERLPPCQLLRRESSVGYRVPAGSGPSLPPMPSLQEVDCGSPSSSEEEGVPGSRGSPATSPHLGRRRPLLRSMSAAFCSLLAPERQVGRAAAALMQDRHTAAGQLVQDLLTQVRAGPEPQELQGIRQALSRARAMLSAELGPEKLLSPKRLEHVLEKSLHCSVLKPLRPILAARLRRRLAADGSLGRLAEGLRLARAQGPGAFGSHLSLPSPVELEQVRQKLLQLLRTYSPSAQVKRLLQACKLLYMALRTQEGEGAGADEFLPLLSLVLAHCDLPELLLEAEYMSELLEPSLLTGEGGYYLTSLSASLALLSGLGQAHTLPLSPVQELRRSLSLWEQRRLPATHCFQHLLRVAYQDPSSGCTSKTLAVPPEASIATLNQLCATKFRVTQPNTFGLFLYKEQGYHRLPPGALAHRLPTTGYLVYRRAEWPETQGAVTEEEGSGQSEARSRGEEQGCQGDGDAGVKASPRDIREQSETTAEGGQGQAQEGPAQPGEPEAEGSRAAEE

Sequence of Apoptotic protease-activating factor 1 (O14727 whole entry): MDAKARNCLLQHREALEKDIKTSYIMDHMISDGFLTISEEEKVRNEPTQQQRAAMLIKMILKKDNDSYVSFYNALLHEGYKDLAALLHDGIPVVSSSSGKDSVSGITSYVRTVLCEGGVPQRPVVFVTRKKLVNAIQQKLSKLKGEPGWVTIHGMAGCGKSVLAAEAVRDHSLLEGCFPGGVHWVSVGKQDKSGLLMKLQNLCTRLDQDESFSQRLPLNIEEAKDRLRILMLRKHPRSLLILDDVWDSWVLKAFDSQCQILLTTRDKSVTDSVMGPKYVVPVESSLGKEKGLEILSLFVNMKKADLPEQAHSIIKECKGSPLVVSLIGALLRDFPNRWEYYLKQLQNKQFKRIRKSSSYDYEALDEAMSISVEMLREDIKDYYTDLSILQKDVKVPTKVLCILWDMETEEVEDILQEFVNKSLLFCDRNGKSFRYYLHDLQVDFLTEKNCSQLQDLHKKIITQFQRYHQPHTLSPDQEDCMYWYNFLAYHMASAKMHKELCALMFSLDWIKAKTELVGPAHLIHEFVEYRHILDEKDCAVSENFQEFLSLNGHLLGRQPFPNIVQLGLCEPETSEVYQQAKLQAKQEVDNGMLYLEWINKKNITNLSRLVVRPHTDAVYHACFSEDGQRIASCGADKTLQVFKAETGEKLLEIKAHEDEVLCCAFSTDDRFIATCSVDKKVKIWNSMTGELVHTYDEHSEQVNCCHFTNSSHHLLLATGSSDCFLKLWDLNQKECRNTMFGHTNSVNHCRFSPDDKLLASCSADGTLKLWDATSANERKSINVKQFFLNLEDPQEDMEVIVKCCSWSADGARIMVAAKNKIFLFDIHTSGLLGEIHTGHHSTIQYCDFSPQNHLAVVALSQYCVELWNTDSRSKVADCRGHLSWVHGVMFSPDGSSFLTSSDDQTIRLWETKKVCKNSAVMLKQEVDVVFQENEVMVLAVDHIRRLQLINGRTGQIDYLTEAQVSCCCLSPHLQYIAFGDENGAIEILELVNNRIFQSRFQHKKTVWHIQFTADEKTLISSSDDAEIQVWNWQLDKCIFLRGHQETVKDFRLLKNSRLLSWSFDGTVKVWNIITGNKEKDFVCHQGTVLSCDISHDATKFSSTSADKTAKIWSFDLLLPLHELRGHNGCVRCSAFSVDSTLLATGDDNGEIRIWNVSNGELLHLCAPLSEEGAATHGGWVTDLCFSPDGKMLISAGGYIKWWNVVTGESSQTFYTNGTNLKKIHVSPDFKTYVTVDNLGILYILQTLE

| SMILES | IC50 [1] | IC50 [2] | EC50 [3] | IC50 (Leucine aminopeptidase) | IC50 [4] |
| --- | --- | --- | --- | --- | --- |
| CCCCCn1c(=O)c(C(=O)Nc2c(C)n(C)n(-c3ccccc3)c2=O)c(O)c2ccccc21 | > 100 µM (inactive) | > 47.1 µM (inactive) | > 53 µM (inactive) |  |  |
| Cc1ccc(-n2c(SCC(=O)N3Cc4ccccc4CC3C(=O)O)nnc2-c2cccnc2)c(C)c1 (stereo not given) |  |  |  | 3.12 µM (active) | 24.9 µM (inactive) |
